From patent US11344574B2, “Fluoro substituted porphyrin compounds, pharmaceutical compositions comprising the same, and methods of preparing and using the same” (Duke University, priority 2017, dated 2022)
Entries after “also recorded” stand apart in the source; their conditions may differ.

Tests used:
[1] = tested on: radiation-induced erectile dysfunction; experiment: Radioprotection of erectile function after 20 Gy radiation; assay type: in vivo; details: rats, 0.5 mg/kg sc, single 20 Gy RT, with and without ascorbate, 9 weeks
Method: Mn4 administration started at 24 hours before RT. Mn4 was given at 0.5 mg/kg sc for the first four weeks daily (except for weekends) and then twice weekly for next five weeks. Single 20 Gy RT dose was given stereotactically.
10 rats per group were studied. MnF3Pen was given at 0.5 mg/kg sc for the first four weeks daily except for weekends, and then twice weekly for the next five weeks.
Single radiation dose of 20 Gy was delivered stereotactically, using image guided small animal radiator.
It was used at 0.1 mg/kg (at week 6 and 9).
Based on earlier studies, erectile dysfunction has been assessed at 9 weeks. […] Mn4 administration started at 24 hours before RT. Mn4 was given at 0.5 mg/kg sc for the first 4 weeks daily except for weekends, and then twice weekly for the next 5 weeks. Single 20 Gy RT dose was given.

[2] = tested on: 4T1 breast tumor; experiment: Mouse flank 4T1 tumor radio- and chemosensitization study, MnP 0.2 mg/kg; assay type: in vivo; details: triple combination MnP 0.2 mg/kg sc + ascorbate + radiation, listed as MnTF3Pen-2-PyP^5+
Method: Female Balb/c mice were injected subcutaneously (on flank) with 1 million cells. […] 24 hours after the first injection of Mn porphyrins the radiation started at 2.5 Gy per day for 3 days. Fractionated radiation regime was used to better reflect the clinical scenario. […] Injection of drugs was continued daily. Once the study was completed when mice reached on average 2000 mm^3 volume, the mice were sacrificed, and tumors, normal muscle from opposite leg and liver were collected and levels of Mn porphyrins analyzed by LCMS/MS.

[3] = Toxicity in a rat and mouse study; assay type: in vivo
From the text: Also, such differences could not have been anticipated based just on the aqueous chemistry and diverse physical properties of those compounds. Such effects likely result from the differences in the polarities of those molecules: strongly polar character of 12 fluorine atoms relative to 4 polar oxygen atoms. […] Despite being equally lipophilic, a higher efficacy of MnTF3Pen-2-PyP^5+ than MnTnBuOE-2-PyP^5+ was observed.

[4] = Pharmacokinetic studies in plasma and organs, 1 mg/kg; assay type: in vivo, rats; details: for Cmax: male, rat
Method: Whenever possible, the PK profiles of MnF3Pen were compared to MnTnBuOE-2-PyP^5+ (MnBuOE, Mn2), the drug presently in two clinical trials.
3 rats were used per time point. The following time points were tested: 30 min, 1, 2, 6, 24 hours, and 3 and 7 days. The tissues were taken after the rats were perfused with PBS to eliminate blood content of organs and, therefore its interference with blood content of organs. At 6 h, three additional rats were used to assess the effect of perfusion. In addition to plasma, the following organs were analyzed: liver, kidney, prostate, penis, testis, rectum, bladder, and brain. We have collected liver due to Mn porphyrins accumulating at the highest level in this organ; it then serves as a depot to maintain levels of drug in plasma and other organs. We also took the brain because toxicity of Mn porphyrins has been seen at that level present in the brain. Whenever possible the comparison with MnBuOE has been done. […] MnBuOE was used as internal standard.

[5] = Lipophilicity by TLC retention factor Rf on silica; assay type: physicochemical; details: vs two non-fluorinated lipophilic analogs
From the text: Fluorination enhances the lipophilicity of MnPs as described with TLC retention factor, Rf (compound path/solvent path). Rf was obtained on silica gel plates using acetonitrile:KNO3(sat):water=8:1:1 as previously described (Tovmasyan A, Carballal S, Ghazaryan R, Melikyan L, Weitner T, Maia C G, Reboucas J S, Radi R, Spasojevic I, Benov L, and Batinic-Haberle I. Rational Design of Superoxide Dismutase (SOD) Mimics: The Evaluation of the Therapeutic Potential of New Cationic Mn Porphyrins with Linear and Cyclic Substituents. Inorg Chem 53: 11467-83, 2014).
In some embodiments, the fluoro-substituted porphyrins of the present invention may have enhanced lipophilicity (e.g., compared to non-fluoro-substituted porphyrins). Lipophilicity can be measured via thin layer chromatography. The relative lipophilicity of a group of compounds can be determined in a given solvent system. […] The fluoro-substituted porphyrins of the present invention suitably have a lipophilicity of greater than zero in a solvent system of acetonitrile:water:KNO3 (saturated aqueous) (8:1:1). Alternatively, the lipophilicity may be quantified by the standard octanol/water partition coefficient (log P). In some embodiments, the lipophilic fluoro-substituted porphyrins may have a greater bioavailability than their hydrophilic analogs. […]

[6] = Ability of MnP to catalyze ascorbate oxidation, initial rates assessed spectrally; details: initial rate of ascorbate oxidation; 10 μM MnP, 1 mM Asc, aerobic, 25 °C, pH 7.8
[7] = tested on: prostate tissue; experiment: Radioprotection of prostate tissue, histopathology (H&E); details: for radioprotection of prostate tissue: rats, 0.5 mg/kg sc, single 20 Gy RT, 0.5 mg/kg
Method: Tissue was stained with H&E.
Mn4 administration started at 24 hours before RT. Mn4 was given at 0.5 mg/kg sc for the first 4 weeks daily except for weekends, and then twice weekly for the next 5 weeks. Single 20 Gy RT dose was given.
The tissues were preserved, half of them in formalin and another half snap-frozen for different analyses. Prostate is the only tissue directly radiated and the penile function was known to suffer radiation damage.

[8] = tested on: wild strain E. coli; experiment: Toxicity by aerobic growth of wild strain E. coli; assay type: cell-based; details: vs MnTnHex-2-PyP^5+ and MnTnBuOE-2-PyP^5+
Method: Herein we explored the member of a new class of Mn porphyrin-based therapeutics, MnTF3Pen-2-PyP^5+ (MnTF3Pen, Mn4) (FIG. 1). We have maintained major structural properties that support the redox-activity of MnPs, yet modified peripheral substituents by introducing polar fluorine atoms. […] The properties of Mn porphyrins (given in arbitrary units) which cumulatively define their therapeutic index: SOD-like activities, lipophilicities and toxicities. […] Toxicities are evaluated based on the aerobic growth of wild strain E. coli—a simple but accurate assay used for over 2 decades to identify the compounds with clinical potential.

[9] = SOD mimicking: catalysis of O2.^− dismutation; assay type: biochemical; details: ability to mimic SOD enzyme in catalysis of O2.^− dismutation
[10] = Maximal tolerable dose (MTD) studies; assay type: in vivo, rats; details: subcutaneous
Method: The dose we identified as entirely safe was then given for 2 weeks. […] A dose above 0.5 mg/kg of MnTF3Pen-2-PyP^5+ seems to impose some toxicity expressed as hypotonia and reluctance to ambulate. We have thus decided to continue with 0.5 mg/kg which appears as safe non-toxic MTD dose for multiple dosing.

[11] = Brain accumulation of MnPs with different administration routes; assay type: in vivo; details: route-dependent
From the text: MnF3Pen accumulates in the brain at levels which are (route-dependently) up to 50% lower than those of MnBuOE due to its more polar fluorine atoms.

[12] = Metal-centered reduction potential for the Mn^IIIP/Mn^IIP redox couple; assay type: physicochemical; details: vs normal hydrogen electrode

Compound: FC(F)(F)CCCC[n+]1ccccc1C1=C2C=CC3=[N+]2[Mn]24[n]5c1ccc5C(c1cccc[n+]1CCCCC(F)(F)F)=C1C=CC(=[N+]12)C(c1cccc[n+]1CCCCC(F)(F)F)=c1ccc([n]14)=C3c1cccc[n+]1CCCCC(F)(F)F [Mn4, 5,10,15,20-tetra(Mn(III) 5′,5′,5′-trifluoropentylpyridinium-2-yl)porphinato pentachloride]
- prevention of radiation-induced erectile dysfunction [1]: fully prevented radiation-induced erectile dysfunction
- tumor growth inhibition [2]: larger tumor growth inhibition; also recorded: Strong tumor suppression
- toxicity compared with MnTnBuOE-2-PyP^5+ [3]: less toxicity
- levels in the tissues of interest ([4]; 1 mg/kg): higher than 100 nM
- tolerability ([4]; 1 mg/kg): well tolerated
- accumulation in liver ([4]; 1 mg/kg, vs MnBuOE): lower accumulation in liver
- plasma half-life ([4]; 1 mg/kg, vs MnBuOE): longer plasma half-life
- levels in all tissues of interest ([4]; FIG. 11): above 0.1 μM
- highest levels, liver ([4]; liver, FIG. 11): about 1 μM
- Cmax ([4]; bladder, 1 mg/kg): 450 nM
- Cmax ([4]; penis, 1 mg/kg): 250 nM
- Cmax ([4]; prostate, 1 mg/kg): 150 nM
- Cmax ([4]; rectum, 1 mg/kg): 105 nM
- Cmax ([4]; testes, 1 mg/kg): 190 nM
- lipophilicity (in words) [5]: more lipophilic
- v0(Asc oxid) [6]: 297 nM/s
- morphological findings, prostate glands ([7]; RT+Mn4+Asc group (heading printed twice)): Local glands presented few large bizarre nuclei, some cells showed enlarged irregular nucleus and obvious nucleolus
- radioprotection of prostate tissue [7]: significant radioprotection of prostate tissue
- radioprotection of prostate tissue ([7]; listed as MnTF3Pen-2-PyP^5+): suppresses radiation (RT) damage to prostate tissue
- bladder and rectum pathology ([7]; with respect to control non-radiated tissues): no changes on bladder and rectum pathology
- toxicity [8]: less toxic
- log kcat (O2−^•) [9]: 7.48
- MTD at 2 weeks ([10]; rat, in vivo, sc, safe non-toxic dose for multiple dosing): 0.5 mg/kg
- dose imposing some toxicity (hypotonia, reluctance to ambulate) [10]: above 0.5 mg/kg
- brain levels lower than those of MnBuOE [11]: up to 50%
- E1/2, mV vs NHE [12]: +288 mV
